Data: patent publication US20130281397A1, “TREATMENT OF DISEASES BY EPIGENETIC REGULATION” (RVX Therapeutics Inc., priority 2012, published 2013)

What follows are compounds tested against T1, Brd4 bromodomain 1 (Homo sapiens, UniProt O60885) (assay: Inhibition of binding of tetra-acetylated histone H4 and Brd4 bromodomain 1 by TR-FRET). Conditions: His-tagged bromodomain 200 nM, biotinylated tetra-acetylated histone H4 peptide 25-50 nM, 2 hours at room temperature.
T1 construct: made in house; host or cells: E. coli BL21(DE3)
Description: Proteins were cloned and overexpressed with a N-terminal 6×His tag, then purified by nickel affinity followed by size exclusion chromatography. Briefly, E. coli BL21(DE3) cells were transformed with a recombinant expression vector encoding N-terminally […] tagged bromodomains from Brd2, Brd3, or Brd4. Cell cultures were incubated at 37° C. with shaking to the appropriate density and induced overnight with IPTG. The supernatant of lysed cells was loaded onto Ni-IDA column for purification. Eluted protein was pooled, concentrated and further purified by size exclusion chromatography. Fractions representing monomeric protein were pooled, concentrated, aliquoted, and frozen at −80° C. for use in subsequent experiments.
For inhibition assays, serially diluted test compound was added to these reactions in a 0.2% final concentration of DMSO. Final buffer concentrations were 30 mM HEPES pH 7.4, 30 mM NaCl, 0.3 mM CHAPS, 20 mM phosphate pH 7.0, 320 mM KF, 0.08% BSA). […] The binding inhibitory activity was shown by a decrease in 665 nm fluorescence relative to 620 nm. IC50 values were determined from a dose response curve.

SMILES	FRET activity (<50 uM)
COc1cc(OC)c2c(=O)[nH]c(-c3cc(C)c(OCCNS(=O)(=O)c4ccc(Cl)cc4)c(C)c3)nc2c1 [Example 95, 4-chloro-N-(2-(4-(5,7-dimethoxy-4-oxo-3,4-dihydroquinazolin-2-yl)-2,6-dimethylphenoxy)ethyl)benzenesulfonamide]	Inactive
CCCNC(=O)OCCOc1c(C)cc(-c2nc3cc(OC)cc(OC)c3c(=O)[nH]2)cc1C [Example 99, 2-(4-(5,7-Dimethoxy-4-oxo-3,4-dihydroquinazolin-2-yl)-2,6-dimethyl-phenoxy)ethyl propylcarbamate]	Active
CNC(=O)OCCOc1c(C)cc(-c2nc3cc(OC)cc(OC)c3c(=O)[nH]2)cc1C [Example 100, 2-(4-(5,7-Dimethoxy-4-oxo-3,4-dihydroquinazolin-2-yl)-2,6-dimethyl-phenoxy)ethyl methylcarbamate]	Active
COc1cc(OC)c2c(=O)[nH]c(-c3cc(C)c(OCCNC(=O)c4ccc(C)cc4)c(C)c3)nc2c1 [Example 101, N-(2-(4-(5,7-Dimethoxy-4-oxo-3,4-dihydroquinazolin-2-yl)-2,6-dimethylphenoxy)ethyl)-4-methylbenzamide]	Active
COc1cc(OC)c2c(=O)[nH]c(-c3cc(C)c(OCCOC(=O)NC4CCCCC4)c(C)c3)nc2c1 [Example 102, 2-(4-(5,7-dimethoxy-4-oxo-3,4-dihydroquinazolin-2-yl)-2,6-dimethylphenoxy)ethyl cyclohexylcarbamate]	Active
COc1cc(OC)c2c(=O)[nH]c(-c3cc(C)c(OCCNS(=O)(=O)c4ccccc4)c(C)c3)nc2c1 [Example 103, N-(2-(4-(5,7-dimethoxy-4-oxo-3,4-dihydroquinazolin-2-yl)-2,6-dimethylphenoxy)ethyl)benzenesulfonamide]	Inactive
COc1cc(OC)c2c(=O)[nH]c(-c3cc(C)c(OCCNS(=O)(=O)c4ccc(C)cc4)c(C)c3)nc2c1 [Example 104, N-(2-(4-(5,7-dimethoxy-4-oxo-3,4-dihydroquinazolin-2-yl)-2,6-dimethylphenoxy)ethyl)-4-methylbenzenesulfonamide]	Inactive
COc1ccc(C(=O)NCCOc2c(C)cc(-c3nc4cc(OC)cc(OC)c4c(=O)[nH]3)cc2C)cc1 [Example 105, N-(2-(4-(5,7-dimethoxy-4-oxo-3,4-dihydroquinazolin-2-yl)-2,6-dimethylphenoxy)ethyl)-4-methoxybenzamide]	Inactive
COc1cc(OC)c2c(=O)[nH]c(-c3cc(C)c(OCCNC(C)=O)c(C)c3)nc2c1 [Example 106, N-(2-(4-(5,7-dimethoxy-4-oxo-3,4-dihydroquinazolin-2-yl)-2,6-dimethylphenoxy)ethyl)acetamide]	Active
COc1cc(OC)c2c(=O)[nH]c(-c3cc(C)c(OCCNC(=O)c4ccccc4)c(C)c3)nc2c1 [Example 107, N-(2-(4-(5,7-dimethoxy-4-oxo-3,4-dihydroquinazolin-2-yl)-2,6-dimethylphenoxy)ethyl)benzamide]	Active
COc1cc(OC)c2c(=O)[nH]c(-c3cc(C)c(OCCNC(=O)C(C)C)c(C)c3)nc2c1 [Example 108, N-(2-(4-(5,7-dimethoxy-4-oxo-3,4-dihydroquinazolin-2-yl)-2,6-dimethylphenoxy)ethyl)isobutyramide]	Active
CNC(=O)NCCOc1c(C)cc(-c2nc3cc(OC)cc(OC)c3c(=O)[nH]2)cc1C [Example 109, 1-(2-(4-(5,7-dimethoxy-4-oxo-3,4-dihydroquinazolin-2-yl)-2,6-dimethylphenoxy)ethyl)-3-methylurea]	Active
